# Assays:
# [1] = tested on: herpes simplex virus type 2 (HSV-2); settings: previous studies, cited from earlier work
# [2] = tested on: motile sperm (normal semen sample); test: modified Sander-Cramer Assay, spermicidal activity; type: cell-based; settings: control; 30 seconds at room temperature
# Experimental: This assay determines the sperm-immobilising minimum effective concentration (MEC).
# Serial two-fold dilutions were prepared from stock solutions at 2% (for water soluble compounds) or 4% (for water insoluble compounds). 250 μL of each dilution were mixed with […] of a normal semen sample containing 60×10^6 motile sperm/mL. Normality of the semen samples was assessed with the aid of a CASA system (Hamilton-Thorne, IVOS; Beverly, Mass.). Semen and compound aliquots were microscopically examined while incubating at room temperature for 30 seconds. If any motile spermatozoon were found, either in the initial examination or after one hour incubation in medium, that dilution was labelled as “failed”. The MEC for a given compound was calculated using the highest dilution that induces total sperm immobilization. 6 to 10 semen samples were used to obtain more reliable results. N9 (MEC=˜0.1-0.2 mg/mL) and solvents were run as control.
substance,measurement,setting,value
Nonoxynol-9 [N9],animals infected with HSV-2,[1],29 out of 42
same,relative susceptibility to HSV-2 infection vs control animals,[1]; effective ID of low-dose inoculum in test mice / ID in controls,29.7 times
same,sperm-immobilising minimum effective concentration (MEC),[2],0.1 to 0.2 mg/mL

# Reference: patent US8193248B2, “Contraceptive composition” (Starpharma Pty Limited, priority 2006, dated 2012)
